PubChem BioAssay (NCI)
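Briefly, cells in 96-well plates were exposed to five compound concentrations for 48 h, and endpoints were estimated by linear interpolation. GI50: concentration for 50% inhibition of growth. TGI: total growth inhibition.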

Assays:
Experiment in all cases: DTP human tumour cell line panel, 48 h
[1] = tested on: SNB-19 CNS
[2] = tested on: CAKI-1 renal
[3] = tested on: 786-0 renal
[4] = tested on: SNB-75 CNS
[5] = tested on: IGROV1 ovarian
[6] = tested on: OVCAR-4 ovarian
[7] = tested on: HCT-15 colon
[8] = tested on: NCI-H460 lung
[9] = tested on: COLO 205 colon
[10] = tested on: SF-539 CNS
[11] = tested on: KM12 colon
[12] = tested on: DU-145 prostate
[13] = tested on: SK-MEL-28 melanoma
[14] = tested on: HS 578T breast
[15] = tested on: NCI/ADR-RES ovarian
[16] = tested on: HCT-116 colon
[17] = tested on: MDA-MB-231 breast
[18] = tested on: HL-60(TB) leukemia
[19] = tested on: HOP-62 NSCLC
[20] = tested on: ACHN renal
[21] = tested on: NCI-H23 lung
[22] = tested on: MCF7 breast
[23] = tested on: MDA-MB-435
[24] = tested on: SF-295 CNS
[25] = tested on: EKVX NSCLC
[26] = tested on: K-562 leukemia
[27] = tested on: SR leukemia
[28] = tested on: BT-549 breast
[29] = tested on: LOX IMVI melanoma
[30] = tested on: MALME-3M melanoma
[31] = tested on: TK-10 renal
[32] = tested on: SN12C renal
[33] = tested on: RXF 393 renal
[34] = tested on: SK-OV-3 ovarian
[35] = tested on: CCRF-CEM leukemia
[36] = tested on: A549 NSCLC
[37] = tested on: SF-268 CNS
[38] = tested on: UO-31 renal
[39] = tested on: SK-MEL-5 melanoma
[40] = tested on: UACC-257 melanoma
[41] = tested on: SW-620 colon
[42] = tested on: SK-MEL-2 melanoma
[43] = tested on: NCI-H226 lung
[44] = tested on: OVCAR-8 ovarian
[45] = tested on: HT29 colon
[46] = tested on: U251 CNS
[47] = tested on: MOLT-4 leukemia
[48] = tested on: RPMI-8226 leukemia
[49] = tested on: OVCAR-5 ovarian
[50] = tested on: OVCAR-3 ovarian
[51] = tested on: UACC-62 melanoma
[52] = tested on: A498 renal
[53] = tested on: PC-3 prostate
[54] = tested on: HOP-92 NSCLC
[55] = tested on: HCC-2998 colon
[56] = tested on: NCI-H522 lung
[57] = tested on: T-47D breast

SMILES: CCOC(=O)c1c(NC(=O)c2ccc(C(F)(F)F)cc2)sc2c(CN3CCN(C)CC3)c(O)ccc12
- GI50 [1]: 1.79 µM
- TGI [1]: 3.48 µM
- GI50 [2]: 1.65 µM
- TGI [2]: 3.16 µM
- GI50 [3]: 1.55 µM
- TGI [3]: 3.32 µM
- GI50 [4]: 2.05 µM
- TGI [4]: 4.92 µM
- GI50 [5]: 1.79 µM
- TGI [5]: 3.47 µM
- GI50 [6]: 2.05 µM
- TGI [6]: 4.43 µM
- GI50 [7]: 1.74 µM
- TGI [7]: 3.5 µM
- GI50 [8]: 1.77 µM
- TGI [8]: 3.38 µM
- GI50 [9]: 1.87 µM
- TGI [9]: 3.76 µM
- GI50 [10]: 1.63 µM
- TGI [10]: 3.02 µM
- GI50 [11]: 1.79 µM
- TGI [11]: 3.34 µM
- GI50 [12]: 1.97 µM
- TGI [12]: 3.79 µM
- GI50 [13]: 1.73 µM
- TGI [13]: 3.16 µM
- GI50 [14]: 1.99 µM
- TGI [14]: 4.52 µM
- GI50 [15]: 1.92 µM
- TGI [15]: 3.83 µM
- GI50 [16]: 1.68 µM
- TGI [16]: 3.34 µM
- GI50 [17]: 1.86 µM
- TGI [17]: 3.56 µM
- GI50 [18]: 1.78 µM
- TGI [18]: 3.94 µM
- GI50 [19]: 1.82 µM
- TGI [19]: 3.99 µM
- GI50 [20]: 1.81 µM
- TGI [20]: 3.21 µM
- GI50 [21]: 2.11 µM
- TGI [21]: 4.73 µM
- GI50 [22]: 1.82 µM
- TGI [22]: 3.65 µM
- GI50 [23]: 1.73 µM
- TGI [23]: 3.12 µM
- GI50 [24]: 1.94 µM
- TGI [24]: 3.98 µM
- GI50 [25]: 2.62 µM
- TGI [25]: 8.15 µM
- GI50 [26]: 1.13 µM
- TGI [26]: 5.86 µM
- GI50 [27]: 1.11 µM
- TGI [27]: 3.42 µM
- GI50 [28]: 1.85 µM
- TGI [28]: 4.15 µM
- GI50 [29]: 1.78 µM
- TGI [29]: 3.19 µM
- GI50 [30]: 1.99 µM
- TGI [30]: 4.28 µM
- GI50 [31]: 1.62 µM
- TGI [31]: 3.16 µM
- GI50 [32]: 1.76 µM
- TGI [32]: 3.44 µM
- GI50 [33]: 1.59 µM
- TGI [33]: 3.81 µM
- GI50 [34]: 1.93 µM
- TGI [34]: 4.21 µM
- GI50 [35]: 1.95 µM
- TGI [35]: 4.77 µM
- GI50 [36]: 1.85 µM
- TGI [36]: 3.85 µM
- GI50 [37]: 1.87 µM
- TGI [37]: 4.01 µM
- GI50 [38]: 1.51 µM
- TGI [38]: 2.95 µM
- GI50 [39]: 3.03 µM
- TGI [39]: 10.1 µM
- GI50 [40]: 2.12 µM
- TGI [40]: 4.98 µM
- GI50 [41]: 1.71 µM
- TGI [41]: 3.2 µM
- GI50 [42]: 2.21 µM
- TGI [42]: 5 µM
- GI50 [43]: 1.95 µM
- TGI [43]: 4.07 µM
- GI50 [44]: 2.14 µM
- TGI [44]: 4.77 µM
- GI50 [45]: 1.83 µM
- TGI [45]: 3.68 µM
- GI50 [46]: 1.79 µM
- TGI [46]: 3.37 µM
- GI50 [47]: 1.74 µM
- TGI [47]: 4 µM
- GI50 [48]: 1.73 µM
- TGI [48]: 3.95 µM
- GI50 [49]: 1.77 µM
- TGI [49]: 3.19 µM
- GI50 [50]: 1.75 µM
- TGI [50]: 3.17 µM
- GI50 [51]: 1.79 µM
- TGI [51]: 3.59 µM
- GI50 [52]: 1.63 µM
- TGI [52]: 3.3 µM
- GI50 [53]: 1.69 µM
- TGI [53]: 3.22 µM
- GI50 [54]: 1.36 µM
- TGI [54]: 3.11 µM
- GI50 [55]: 1.71 µM
- TGI [55]: 3.23 µM
- GI50 [56]: 2.19 µM
- TGI [56]: 5.56 µM
- GI50 [57]: 1.84 µM
- TGI [57]: 4.54 µM
